Activity calls are given as the source filed them. No cut-off for these calls is given here.
Key:
[1] = molecular target: DNA polymerase beta (Homo sapiens) (UniProt P06746); test: Binding affinity to human DNA polymerase beta with homo-lysine modification at 72 assessed as inhibition of dRP excision in presence of 32P-end labelled duplex DNA at 25 uM by SDS PAGE
[2] = molecular target: DNA polymerase beta (Homo sapiens) (UniProt P06746); test: Binding affinity to human DNA polymerase beta with methyl-lysine modification at 72 assessed as inhibition of dRP excision in presence of 32P-end labelled duplex DNA at 25 uM by SDS PAGE
[3] = molecular target: DNA polymerase beta (Homo sapiens) (UniProt P06746); test: Binding affinity to wild type human DNA polymerase beta assessed as inhibition of dRP excision in presence of 32P-end labelled duplex DNA at 25 uM by SDS PAGE analysis
[4] = molecular target: DNA polymerase beta (Rattus norvegicus) (UniProt P06766); test: Binding affinity to rat DNA polymerase beta with homo-lysine modification at 72 assessed as inhibition of dRP excision in presence of 32P-end labelled duplex DNA at 50 uM by SDS PAGE
[5] = molecular target: DNA polymerase beta (Rattus norvegicus) (UniProt P06766); test: Binding affinity to rat DNA polymerase beta with methyl-lysine modification at 72 assessed as inhibition of dRP excision in presence of 32P-end labelled duplex DNA at 50 uM by SDS PAGE
[6] = molecular target: DNA polymerase beta (Rattus norvegicus) (UniProt P06766); test: Binding affinity to wild type rat DNA polymerase beta assessed as inhibition of dRP excision in presence of 32P-end labelled duplex DNA at 50 uM by SDS PAGE analysis
[7] = molecular target: DNA polymerase beta (Rattus norvegicus) (UniProt P06766); test: Binding affinity to wild type rat DNA polymerase beta assessed as inhibition of dRP excision in presence of 32P-end labelled duplex DNA at 10 uM by SDS PAGE analysis
[8] = molecular target: DNA polymerase beta (Rattus norvegicus) (UniProt P06766); test: Binding affinity to rat DNA polymerase beta with methyl-lysine modification at 72 assessed as inhibition of dRP excision in presence of 32P-end labelled duplex DNA at 10 uM by SDS PAGE
[9] = molecular target: DNA polymerase beta (Rattus norvegicus) (UniProt P06766); test: Binding affinity to rat DNA polymerase beta with homo-lysine modification at 72 assessed as inhibition of dRP excision in presence of 32P-end labelled duplex DNA at 10 uM by SDS PAGE
[10] = molecular target: DNA polymerase beta (Rattus norvegicus) (UniProt P06766); test: Binding affinity to wild type rat DNA polymerase beta assessed as inhibition of dRP excision in presence of 32P-end labelled duplex DNA at 25 uM by SDS PAGE analysis
[11] = molecular target: DNA polymerase beta (Rattus norvegicus) (UniProt P06766); test: Binding affinity to rat DNA polymerase beta with methyl-lysine modification at 72 assessed as inhibition of dRP excision in presence of 32P-end labelled duplex DNA at 25 uM by SDS PAGE
[12] = molecular target: DNA polymerase beta (Rattus norvegicus) (UniProt P06766); test: Binding affinity to rat DNA polymerase beta with homo-lysine modification at 72 assessed as inhibition of dRP excision in presence of 32P-end labelled duplex DNA at 25 uM by SDS PAGE

Row | Structure (SMILES) | inhibition [1] | inhibition [2] | inhibition [3] | inhibition [4] | inhibition [5] | inhibition [6] | inhibition [7] | inhibition [8] | inhibition [9] | inhibition [10] | inhibition [11] | inhibition [12]
1 | CC[C@H](/C=C/[C@@H](C)[C@H]1CC[C@H]2[C@@H]3CC=C4C[C@@H](O)CC[C@]4(C)[C@H]3CC[C@]12C)C(C)C | Active | Active | Active | Active | Active | Active |  |  |  |  |  | 
2 | CC[C@H](CC[C@@H](C)[C@H]1CC[C@H]2[C@@H]3CCC4C[C@@H](OC(=O)c5ccccc5)CC[C@]4(C)[C@H]3CC[C@]12C)C(C)C (some centres not stated) | Active | Active | Active | Active | Active | Active |  |  |  |  |  | 
3 | CCCCCCCCC(O)C(O)CCCCCCCC(=O)O (racemic) |  |  |  |  |  |  | Active | Active | Active |  |  | 
4 | CCCCCCCC[C@H]1O[C@H]1CCCCCCCC(=O)O (racemic) |  |  |  | inactive | Active | Active |  |  |  | Active | Active | inactive
5 | O=C(O)c1ccc(O)c(O)c1 | Active | Active | Active | 25% | 50% | 50% |  |  |  |  |  | 

From ChEMBL document CHEMBL4665737, “An assay for DNA polymerase β lyase inhibitors that engage the catalytic nucleophile for binding” (Bioorg Med Chem, 2020)
